Values of other authors, collected in US11672759B2 (priority 2017, dated 2023).

Details: estimated

Question: What does the source list for `COc1cc2c(c(OC)c1OC)-c1ccc(OC)c(=O)cc1[C@@H](NC(C)=O)CC2` [colchicine, N-((7S)-5,6,7,9-tetrahydro-1,2,3,10-tetramethoxy-9-oxobenzo(a)heptalen-7-yl)-acetamide]?
Answer: effective dose: approximately 0.015 mg/kg; toxic dose: greater than 0.1 mg/kg; typically lethal dose: approximately 0.8 mg/kg
